# Measurements taken from publication PMC11674305, “Inhibition of Neural Crest Cell Migration by Strobilurin Fungicides and Other Mitochondrial Toxicants” (Cells, 2024).
# What was measured:
# [1] = cited from earlier work
# neural crest cells (NCC) [2] = assay: Intracellular ATP measurement (CellTiterGlo); format: cell-based, human; settings: after 60 min, at BMC10 (V) of cMINC
# Experimental: Cells were seeded at a density of 20,000 cells/well. The NCCs were treated with the BMC10 (V) of the cMINC screen for one hour, six hours or 24 h. Then, a CellTiterGlo-Triton mix was prepared. Therefore, a 0.5% Triton solution in PBS was prepared, and the commercial reagent mix CellTiterGlo 2.0 (Promgea, Madison, WI, USA) was added in a 1:1 ratio. An amount of 50 µL/well of the mix was added to 100 µL of medium. The plate was shaken for two minutes, and 100 µL of the cell mixture was transferred to a white measurement plate. For the blank value, only medium with the mix was measured. Luminescence data of samples were normalized to DMSO solvent controls, and the ATP data are given in % relative to “untreated cells”.
# neural crest cells (NCC) [3] = assay: Seahorse oxygen consumption rate (mitochondrial stress test); format: cell-based, human
# Experimental: The Seahorse bioanalyzer simultaneously measures cellular oxygen consumption rates (OCR) and extracellular acidification rates (ECAR). Therefore, NCCs were seeded at least two days prior to the assays at a density of 80,000 cells/well on Seahorse XF96 V3 PS Cell Culture Microplates (Agilent, Santa Clara, CA, USA) in either glucose medium or galactose medium. After 24 h, the medium was exchanged. For the real-time ATP production rate and mitochondrial stress assay, the cartridge was hydrated at 0% CO2 and 37 °C, and the seahorse was turned on to stabilize the temperature one day prior. The medium was changed to Seahorse XF DMEM Medium (Agilent, Santa Clara, CA, USA) supplemented with 2 mM L-glutamine, 1 mM pyruvate and 18 mM glucose or galactose 1 h before the start of the assays. Directly before the start of the assay, the medium was exchanged again. The sensor cartridge was loaded with the test compounds anchored to the BMC10 (V) of the cMINC screen and the recommended concentrations of calibration compounds for a mitochondrial stress test. These were 5 μM oligomycin, 15 μM carbonyl cyanide p-trifluoro methoxyphenylhydrazone (FCCP) and 5 μM rotenone plus 5 μM antimycin A. Additionally, 1 μg/mL H-33342 was added to the rotenone and antimycin A injection to perform afterwards a cell count (Cellomics, Waltham, MA, USA), to which the data were normalized. Six technical replicates were used for control conditions, and three technical replicates were used for other samples. The software Seahorse Analytics (Agilent, Santa Clara, CA, USA) was used for the evaluation (https://seahorseanalytics.agilent.com (accessed on 30 October 2024)).
# neural crest cells (NCC) [4] = assay: cMINC (UKN2) assay: circular migration of neural crest cells, with viability; format: cell-based, human; settings: for Ratio: migration/cytotoxicity ratio, hit requires ≥ 1.3, HTC used where no viability effect
# Experimental: The research group initially developed the first version of the test in 2012 [40]. The test has been further improved and characterized. To perform the cMINC assay, NCCs were thawed in N2-S Medium and seeded on the day of migration-1 (DoM-1) on a 96-well polystyrene plate (Corning, Glendale, AZ, USA) around stoppers, to create a cell-free area of 2 mm diameter (Platypus Technologies, Madison, WI, USA). The cells were resuspended in N2-S Medium supplemented with […] of the cytokines EGF and FGF, and then counted and seeded around the stoppers at a density of 95,000 cells/cm^2. After 24 h, the stoppers were removed, and the medium was exchanged. The removal of the stoppers initiates migration of the NCCs into the cell-free area. For the treatment, the 5x-concentrated toxicant solution was added to the medium 24 h after stopper removal.
# On day 2, cells were stained with 533 nM calcein-AM and 1 μg/mL H-33342 (both from Sigma, Steinheim, Germany) and observed using two different channels on the Cellomics ArrayScan VTI imaging microscope (Thermo Fisher, Pittsburgh, PA, USA) to assess viability and migration. For the migration, four pictures were taken in the region of interest (ROI) (5× magnification objective). Migration data were obtained using the software “Ringassay” (http://invitrotox.uni-konstanz.de/ (accessed on 3 November 2024)), which can estimate the previously cell-free area and count the number of H-33342 and calcein-AM double-positive cells. Cell viability was assessed by taking four pictures outside of the ROI with 10× magnification objective. Viable cells were defined as H-33342 and calcein-AM double-positive cells and calculated by an automatic algorithm of the ArrayScan VTI 700 Series software as described earlier. […] Each plate included wells for testing of negative (0.1% DMSO solvent) and positive controls (200 nM cytochalasin D) in addition to the wells for blinded samples. The data from control wells were used as acceptance criteria of the assay. […] Renormalization of the concentration–response curves was performed after a visual inspection that the two lowest test-concentration data points are in the no-effect range. The average response (relative to solvent control) of the lowest two test concentrations was calculated, and all other data points of the same curve were divided by this average value. The calculations of the benchmark concentrations 10 for viability (BMC10 (V)) and 25 for migration (BMC25 (M)) were performed with the online available BMC software (http://invitrotox.uni-konstanz.de/ (accessed on 4 November 2024)).
smiles,measurement,setting,value
"CO/C=C(/C(=O)OC)c1ccccc1COc1cccc(C(F)(F)F)n1 [Picoxystrobin, picoxystrobin]",Henry's law constant,"[1]; at 25 °C, VIVD model input",6 × 10^−4 Pa*m^3*mol⁻^1
same,charge characterization,[1]; model input,neutral
same,ATP levels,neural crest cells (NCC) [2],did not decrease
same,lowering of OCR POD by 24 h pre-treatment,neural crest cells (NCC) [3]; 24 h pre-treatment vs acute exposure,10 fold
same,"BMC25 (OCR), POD","neural crest cells (NCC) [3]; 24 h pre-treatment, galactose medium",0.4 µM
same,Migration,"neural crest cells (NCC) [4]; Pre-Screen 1, single concentration 1:1000 of stock, in most cases 100 μM",65 % of control
same,effect of 1% HSA on inhibition of NCC migration,neural crest cells (NCC) [4]; medium supplemented with 1% human serum albumin,did not alter the effect
same,BMC25 (M),"neural crest cells (NCC) [4]; migration, primary screen, 24 h exposure",1e-05 M
same,Ratio,neural crest cells (NCC) [4],6.0
same,Ratio,neural crest cells (NCC) [4]; listed as BC2,6.1
